15 compounds from BindingDB's records for doi:10.1016/j.bioorg.2016.03.001 (Jishou University, 2016) can be followed below.

In this test the target is Alpha-glucosidase MAL12 (Saccharomyces cerevisiae (strain ATCC 204508 / S288c), UniProt P53341). Kind of test: In vitro Assay of alpha-Glucosidasee Inhibitory Activity. The conditions noted are these: pH 6.8. As to the method: The test compounds were dissolved in DMSO to prepare the required distributing concentration. α-Glucosidase inhibitory activity was assayed by using 50 mM phosphate buffer (pH 6.8) at 37 °C. The enzymatic reaction mixture composed of 20 µL α-glucosidase (0.2 U), 10 µL of various concentrations of test compounds and 140 µL of phosphate buffer was incubated at 37 °C for 10 min. Then 0.5 mM p-nitrophenyl α-D-glucopyranoside (30 µL) was added to the mixture as a substrate. After further incubation at 37 °C for 30 min. The absorbance was measured spectrophotometrically at 405 nm. The sample solution was replaced by DMSO as a control. Acarbose was used as a positive control. All experiments were carried out in triplicates.
Alpha-glucosidase MAL12, sequence (P53341 whole entry): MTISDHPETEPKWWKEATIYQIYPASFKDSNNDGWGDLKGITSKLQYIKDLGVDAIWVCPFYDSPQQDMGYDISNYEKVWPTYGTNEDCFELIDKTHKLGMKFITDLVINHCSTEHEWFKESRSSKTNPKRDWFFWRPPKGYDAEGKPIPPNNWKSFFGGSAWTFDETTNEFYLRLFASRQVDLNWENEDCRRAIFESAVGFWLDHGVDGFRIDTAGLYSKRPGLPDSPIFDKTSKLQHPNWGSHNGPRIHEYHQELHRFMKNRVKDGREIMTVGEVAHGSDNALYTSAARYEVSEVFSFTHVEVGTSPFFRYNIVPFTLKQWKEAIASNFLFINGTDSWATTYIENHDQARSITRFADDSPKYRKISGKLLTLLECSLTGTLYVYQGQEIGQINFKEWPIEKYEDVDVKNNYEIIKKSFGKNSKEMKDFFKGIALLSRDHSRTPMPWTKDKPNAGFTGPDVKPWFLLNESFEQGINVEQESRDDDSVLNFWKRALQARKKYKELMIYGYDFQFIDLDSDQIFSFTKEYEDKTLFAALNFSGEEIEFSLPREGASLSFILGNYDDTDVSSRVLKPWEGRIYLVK
For the compound `O=C(N/N=C/c1cccc(Br)c1)c1nc(-c2cc3ccccc3oc2=O)cs1` [(E)-N'-(3-bromobenzylidene)-4-(2-oxo-2H-chromen-3-yl)thiazole-2-carbohydrazide (7r)], the IC50 (commonly the concentration that gives 50% inhibition) was found to be 14 µM.

`O=C(N/N=C/c1ccccc1O)c1nc(-c2cc3ccccc3oc2=O)cs1` [(E)-N'-(2-Hydroxybenzylidene)-4-(2-oxo-2H-chromen-3-yl)thiazole-2-carbohydrazide (7b)] registered an IC50 of 37.2 µM.

`O=C(N/N=C/c1ccc(O)c(O)c1)c1nc(-c2cc3ccccc3oc2=O)cs1` [(E)-N'-(3,4-Dihydroxybenzylidene)-4-(2-oxo-2H-chromen-3-yl)thiazole-2-carbohydrazide (7k)] registered an IC50 of 18.2 µM. This IC50 lies about 2-fold lower than the previous one.

Turning to `O=C(N/N=C/c1ccc(Cl)cc1)c1nc(-c2cc3ccccc3oc2=O)cs1` [(E)-N'-(4-Chlorobenzylidene)-4-(2-oxo-2H-chromen-3-yl)thiazole-2-carbohydrazide (7m)], inhibition was half-maximal at 10.6 µM (IC50).

Consider `O=C(N/N=C/c1cccc(F)c1)c1nc(-c2cc3ccccc3oc2=O)cs1` [(E)-N'-(3-Fluorobenzylidene)-4-(2-oxo-2H-chromen-3-yl)thiazole-2-carbohydrazide (7q)], for which the IC50 came to 22.6 µM.

Turning to `O=C(N/N=C/c1ccc(O)c(F)c1)c1nc(-c2cc3ccccc3oc2=O)cs1` [(E)-N'-(3-Fluoro-4-hydroxybenzylidene)-4-(2-oxo-2Hchromen-3-yl)thiazole-2-carbohydrazide (7g)], the IC50 came to 16.6 µM.

`O=C(N/N=C/c1ccc(C(F)(F)F)cc1)c1nc(-c2cc3ccccc3oc2=O)cs1` [(E)-4-(2-Oxo-2H-chromen-3-yl)-N'-(4-(trifluoromethyl)benzylidene)thiazole-2-carbohydrazide (7o)] came in with an IC50 of 16 µM. This IC50 and that of the compound before are within 1.5-fold of each other.

With `O=C(N/N=C/c1cc(Cl)ccc1O)c1nc(-c2cc3ccccc3oc2=O)cs1` [(E)-N'-(5-Chloro-2-hydroxybenzylidene)-4-(2-oxo-2Hchromen-3-yl)thiazole-2-carbohydrazide (7h)], the IC50 came to 8.23 µM.

Regarding `COc1ccccc1/C=N/NC(=O)c1nc(-c2cc3ccccc3oc2=O)cs1` [(E)-N'-(2-Methoxybenzylidene)-4-(2-oxo-2H-chromen-3-yl)thiazole-2-carbohydrazide (7s)], half-maximal inhibition (IC50) was put at 64.3 µM.

Compound `O=C(N/N=C/c1cccc(Cl)c1)c1nc(-c2cc3ccccc3oc2=O)cs1` [(E)-N'-(3-Chlorobenzylidene)-4-(2-oxo-2H-chromen-3-yl)thiazole-2-carbohydrazide (7n)] yielded an IC50 of 12 µM. This IC50 is about 5.4-fold lower than that of the compound before.

In the case of `COc1ccc(/C=N/NC(=O)c2nc(-c3cc4ccccc4oc3=O)cs2)c(O)c1` [(E)-N'-(2-Hydroxy-4-methoxybenzylidene)-4-(2-oxo-2Hchromen-3-yl)thiazole-2-carbohydrazide (7i)], the half-maximal inhibitory concentration (IC50) came out at 29.9 µM.

The compound `O=C(N/N=C/c1ccccc1F)c1nc(-c2cc3ccccc3oc2=O)cs1` [(E)-N'-(2-Fluorobenzylidene)-4-(2-oxo-2H-chromen-3-yl)thiazole-2-carbohydrazide (7p)] showed an IC50 of 23.6 µM. The IC50 values of the last two compounds are within 1.5-fold of each other.

The compound `COc1ccc(/C=N/NC(=O)c2nc(-c3cc4ccccc4oc3=O)cs2)cc1` [(E)-N'-(4-Methoxybenzylidene)-4-(2-oxo-2H-chromen-3-yl)thiazole-2-carbohydrazide (7a)] displayed an IC50 of 81.7 µM.

On to `CC(C)(C)c1cc(/C=N/NC(=O)c2nc(-c3cc4ccccc4oc3=O)cs2)c(O)c(C(C)(C)C)c1` [(E)-N'-(3,5-Di-tert-butyl-2-hydroxybenzylidene)-4-(2-oxo-2Hchromen-3-yl)thiazole-2-carbohydrazide (7d)], for which the IC50 worked out at 10.2 µM.

As for `O=C(N/N=C/c1ccc(O)cc1)c1nc(-c2cc3ccccc3oc2=O)cs1` [(E)-N'-(4-Hydroxybenzylidene)-4-(2-oxo-2H-chromen-3-yl)thiazole-2-carbohydrazide (7c)], it took 25.2 µM to reach half-maximal inhibition (IC50).
